These results are taken from ChEMBL document CHEMBL1201862, “PubChem BioAssay data set” (2004).

Molecules are shown by their SMILES.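 Dose response: 5 concentrations. Exposure: 48 h. Format: 96-well plates. Endpoint: linear interpolation; highest concentration if not reached. The concentration for 50% growth inhibition is given as GI50.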 Activity calls are given as the source filed them. No stated cut-off is given here; in the data, active = GI50 up to about 1.1 µM and inactive = higher. Some results are limits rather than exact numbers.

Some test systems named below: MDA-MB-435; SK-MEL-2; PC-3; A549; OVCAR-4; HOP-62; UACC-257; K562; 786-0; NCI-H522; SK-MEL-28; HOP-92; RPMI-8226; ACHN; TK-10; BT-549; SF-295; MCF7; SNB-75; Malme-3M.
What all share (test): growth of human tumour cells (NCI), 48 h

With `CC1(C)O[C@H]2[C@@H]3N=C(c4ccccc4)O[C@@H]3C=C[C@H]2O1`, the GI50 in the test with MDA-MB-435, in the test on SK-MEL-2, with PC-3, in the test on A549, with OVCAR-4 and in the test with HOP-62 was > 100 µM (inactive) throughout. The GI50 in the test on UACC-257 is > 100 µM (inactive); in the test with K562, > 100 µM (inactive); in the test with 786-0 it was > 100 µM (inactive); in the test with NCI-H522 it was 4.01 µM (inactive); in the test on SK-MEL-28, > 100 µM (inactive); in the test with HOP-92 it was 83.2 µM (inactive). Moreover, the GI50 in the test with RPMI-8226, in the test on ACHN, in the test on TK-10, in the test with BT-549, in the test on SF-295 and with MCF7 was > 100 µM (inactive) each time.
For `CN1CCN(CCCNN)CC1`, the GI50 in the test with MDA-MB-435, in the test on SK-MEL-2, in the test with PC-3, in the test on A549, with OVCAR-4 and in the test with HOP-62 was > 100 µM (inactive) in each case. For the same molecule, the GI50 was > 100 µM (inactive) in the test with SNB-75; > 100 µM (inactive) in the test on UACC-257; 1.87 µM (inactive) with K562; > 100 µM (inactive) in the test on 786-0; > 100 µM (inactive) in the test with NCI-H522; > 100 µM (inactive) with SK-MEL-28. Moreover, the GI50 with HOP-92 was > 100 µM (inactive); in the test with RPMI-8226, 86.7 µM (inactive); in the test with ACHN it was > 100 µM (inactive); in the test on TK-10, > 100 µM (inactive); with BT-549, > 100 µM (inactive); with SF-295, > 100 µM (inactive). Further, in the test with MCF7, the GI50 was > 100 µM (inactive).
With `CC1CCC2C(C)C(OC(=O)CCC(=O)O)OC3OC4(C)CCC1C32OO4` (centres undefined), the GI50 with MDA-MB-435 is 1.51 µM (inactive); in the test on SK-MEL-2, 3.86 µM (inactive); with PC-3 it was 0.353 µM (active); with A549 it was 11.9 µM (inactive); with OVCAR-4 it was 7.01 µM (inactive); with HOP-62, 16.6 µM (inactive). In addition, the GI50 in the test on SNB-75 was 19.3 µM (inactive); in the test with UACC-257, 2.17 µM (inactive); in the test on K562 it was 1.32 µM (inactive); in the test on 786-0, 15.4 µM (inactive); in the test with SK-MEL-28, 37.5 µM (inactive); in the test on HOP-92 it was 11.6 µM (inactive). Also, the GI50 in the test with RPMI-8226 was 0.246 µM (active); in the test with ACHN, 4.52 µM (inactive); in the test with TK-10 it was 2.99 µM (inactive); in the test with BT-549, 11.2 µM (inactive); with SF-295, 15.8 µM (inactive); with MCF7 it was 4.5 µM (inactive).
Consider `CC(C)(O)CCC(O)C(C)(O)C1CCC2(O)C3=CC(=O)C4(O)CC(O)C(O)CC4(C)C3CCC12C.CC(C)(O)CCC(O)C(C)(O)C1CCC2(O)C3=CC(=O)C4CC(O)C(O)CC4(C)C3CCC12C` (centres undefined), for which the GI50 in the test on MDA-MB-435, in the test on SK-MEL-2, with PC-3, in the test on A549, in the test with OVCAR-4 and with HOP-62 was > 100 µM (inactive) throughout. Further, the GI50 with SNB-75, in the test on UACC-257, in the test on K562, in the test with 786-0, with NCI-H522 and in the test on SK-MEL-28 was > 100 µM (inactive) each time. Further, the GI50 with HOP-92, in the test on Malme-3M, with ACHN, in the test on TK-10, with BT-549 and in the test on SF-295 was > 100 µM (inactive) in each case. For the same molecule, the GI50 with MCF7 is 86.7 µM (inactive).
